Results reported in patent US10006079B2, “Method for establishing the anti-diabetic potential of bitter melon” (Glykon Technologies Group, LLC, priority 2013, dated 2018).

How the values were obtained:
Normal Rats = experiment: Hypoglycemic activity of bitter melon extracts in normal rats (blood glucose after oral glucose challenge); assay type: in vivo, Wistar Albino male rats; details: for hypoglycemia in normal animals (glucose <70 mg/dL in this model): 50 mg/kg
Method: (§1) This and related experiments subsequently were published (Clouatre et al., 2011.) Wistar Albino male rats 12 weeks of age were obtained from St John's Pharmacy College Animal House, India and handled according to institutional practices. […] All rats were fed a standard rat chow diet ad libitum from Sai Durga Feed, Bangalore; water also was supplied ad libitum. Following 7 days acclimatization, one half of the rats were fasted for 24 hours and then injected with freshly prepared STZ in citrate buffer [[…]] (45 mg/kg, i.p). After one week, rats with marked hyperglycemia (fasting blood glucose >300 mg/dL) were used as the diabetic rats.
(§2) Extracts 1-4 were produced and preserved via different methods attempting to retain efficacies reported for macerated fresh fruit preparations. EX-1 was a vacuum-dried powder of the macerated extract of fresh fruit (˜25:1). EX-2 was a freeze-dried powder of the macerated extract of fresh fruit (˜25:1). EX-3 was a spray-dried powder of the macerated extract of fresh fruit (˜25:1). EX-4 was a vacuum-dried powder of the macerated extract of fresh fruit adsorbed onto powdered vacuum-dried fresh fruit (˜15:1). Dosages of the extracts (mg/kg bodyweight/day) were 50 and 250 mg/kg as indicated. After an overnight fast, the extract samples suspended in 5% gum acacia were administered to the animals by gastric intubations with a syringe.
(§3) For test purposes, glucose was given orally by intubation as a 40% solution (1 g/kg body wt). Blood samples following the glucose challenge were collected for the measurement of blood glucose from the tail vein at 0, 1, 2, 3 and 4 hrs. The blood glucose level was determined by using an electronic glucometer (Accu Check, Roche Diagnostic).
First, the hypoglycemic activity of bitter melon extracts was studied in normal rats.

[1] = test system: streptozotocin-induced diabetic rats; experiment: Anti-hyperglycemic activity of bitter melon extracts in streptozotocin-induced diabetic rats (blood glucose); assay type: in vivo, Wistar Albino male rats; details: extracts 250 mg/kg, metformin 150 mg/kg
Method: as §1, §2, §3
Next, the anti-hyperglycemic activity of bitter melon extracts was studied in streptozotocin-induced diabetic rats described above.

- hypoglycemia in normal animals (glucose <70 mg/dL in this model) (Normal Rats): resulted in hypoglycemia
- hypoglycemia in normal animals (glucose <70 mg/dL in this model) (Normal Rats; listed as metformin): led to hypoglycemia
SMILES: CN(C)C(=N)N=C(N)N [Metformin, metformin]
- Blood Glucose Level, Treatment +1 hr (Normal Rats; 50 mg/kg oral, +1 hr): 85.5 ± 1.8 mg %
- Blood Glucose Level, Treatment +2 hr (Normal Rats; 50 mg/kg oral, +2 hr): 73.5 ± 1.2 mg %
- percent reduction in blood sugar level compared with initial glucose value (0 h) (Normal Rats; 50 mg/kg oral, +2 hr): (34.9) percent
- Blood Glucose Level, Treatment +3 hr (Normal Rats; 50 mg/kg oral, +3 hr): 66.5 ± 1.2 mg %
- percent reduction in blood sugar level compared with initial glucose value (0 h) (Normal Rats; 50 mg/kg oral, +3 hr): (46.4) percent
- Blood Glucose Level, Treatment +4 hr (Normal Rats; 50 mg/kg oral, +4 hr): 52.5 ± 0.7 mg %
- percent reduction in blood sugar level compared with initial glucose value (0 h) (Normal Rats; 50 mg/kg oral, +4 hr): (53.5) percent
- Blood Glucose Level, Initial (0 hr) (Normal Rats; 50 mg/kg oral, initial value 0 hr): 93.3 ± 1.3 mg %
- reduced blood glucose, percent ([1]; diabetic animals, at 4 hours): 53.52 percent (mg %)
- Blood Glucose Level, Treatment +1 hr ([1]; diabetic rats, +1 hr): 271.6 ± 4.0 mg %
- Blood Glucose Level, Treatment +2 hr ([1]; diabetic rats, +2 hr): 214.4 ± 3.2 mg %
- percent reduction of blood sugar level compared with initial level of blood glucose (0 h) ([1]; diabetic rats, +2 hr): (34.9) percent
- Blood Glucose Level, Treatment +3 hr ([1]; diabetic rats, +3 hr): 176.0 ± 6.7 mg %
- percent reduction of blood sugar level compared with initial level of blood glucose (0 h) ([1]; diabetic rats, +3 hr): (46.4) percent
- Blood Glucose Level, Treatment +4 hr ([1]; diabetic rats, +4 hr): 153.0 ± 3.3 mg %
- percent reduction of blood sugar level compared with initial level of blood glucose (0 h) ([1]; diabetic rats, +4 hr): (53.5) percent
- Blood Glucose Level, Initial (0 hr) ([1]; diabetic rats, initial value 0 hr): 329.2 ± 5.3 mg %
